Measurements published in PubChem BioAssay (NCI).
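The compound was tested at five concentrations on cells cultured in 96-well plates, with a 48-hour exposure period. TGI: total growth inhibition.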

Tests used:
Experiment in all cases: NCI tumour cell line growth inhibition, 48 h
786-0 renal = system: 786-0 renal
A498 renal = system: A498 renal
A549 NSCLC = system: A549 NSCLC
ACHN renal = system: ACHN renal
CAKI-1 renal = system: CAKI-1 renal
CCRF-CEM leukemia = system: CCRF-CEM leukemia
COLO 205 colon = system: COLO 205 colon
DLD-1 colon = system: DLD-1 colon
DMS 114 small cell lung = system: DMS 114 small cell lung
DMS 273 small cell lung = system: DMS 273 small cell lung
EKVX NSCLC = system: EKVX NSCLC
HCC-2998 colon = system: HCC-2998 colon
HCT-116 colon = system: HCT-116 colon
HCT-15 colon = system: HCT-15 colon
HL-60(TB) leukemia = system: HL-60(TB) leukemia
HOP-62 NSCLC = system: HOP-62 NSCLC
HT29 colon = system: HT29 colon
IGROV1 ovarian = system: IGROV1 ovarian
K-562 leukemia = system: K-562 leukemia
KM12 colon = system: KM12 colon
KM20L2 colon = system: KM20L2 colon
LOX IMVI melanoma = system: LOX IMVI melanoma
LXFL 529 NSCLC = system: LXFL 529 NSCLC
M14 melanoma = system: M14 melanoma
M19-MEL melanoma = system: M19-MEL melanoma
MALME-3M melanoma = system: MALME-3M melanoma
MOLT-4 leukemia = system: MOLT-4 leukemia
NCI-H226 lung = system: NCI-H226 lung
NCI-H23 lung = system: NCI-H23 lung
NCI-H460 lung = system: NCI-H460 lung
NCI-H522 lung = system: NCI-H522 lung
OVCAR-3 ovarian = system: OVCAR-3 ovarian
OVCAR-5 ovarian = system: OVCAR-5 ovarian
OVCAR-8 ovarian = system: OVCAR-8 ovarian
RPMI-8226 leukemia = system: RPMI-8226 leukemia
RXF 393 renal = system: RXF 393 renal
SF-268 CNS = system: SF-268 CNS
SF-295 CNS = system: SF-295 CNS
SF-539 CNS = system: SF-539 CNS
SK-MEL-2 melanoma = system: SK-MEL-2 melanoma
SK-MEL-28 melanoma = system: SK-MEL-28 melanoma
SK-MEL-5 melanoma = system: SK-MEL-5 melanoma
SK-OV-3 ovarian = system: SK-OV-3 ovarian
SN12C renal = system: SN12C renal
SNB-19 CNS = system: SNB-19 CNS
SNB-75 CNS = system: SNB-75 CNS
SNB-78 CNS = system: SNB-78 CNS
SW-620 colon = system: SW-620 colon
TK-10 renal = system: TK-10 renal
U251 CNS = system: U251 CNS
UACC-257 melanoma = system: UACC-257 melanoma
UACC-62 melanoma = system: UACC-62 melanoma
UO-31 renal = system: UO-31 renal
HOP-18 NSCLC = system: HOP-18 NSCLC
HOP-92 NSCLC = system: HOP-92 NSCLC
OVCAR-4 ovarian = system: OVCAR-4 ovarian
SR leukemia = system: SR leukemia
XF 498 CNS = system: XF 498 CNS

SMILES: COc1ccc2c(c1)Oc1cc(O)ccc1[C@@H]2c1ccccc1C(=O)NC(C)c1ccccc1 (stereo partly drawn)
- TGI (786-0 renal): 27.9 µM
- TGI (A498 renal): 32.1 µM
- TGI (A549 NSCLC): 42.5 µM
- TGI (ACHN renal): 41.1 µM
- TGI (CAKI-1 renal): 42.2 µM
- TGI (CCRF-CEM leukemia): 98.7 µM
- TGI (COLO 205 colon): 32.9 µM
- TGI (DLD-1 colon): 39.4 µM
- TGI (DMS 114 small cell lung): 32.3 µM
- TGI (DMS 273 small cell lung): 28.2 µM
- TGI (EKVX NSCLC): 31.5 µM
- TGI (HCC-2998 colon): 26.6 µM
- TGI (HCT-116 colon): 24.8 µM
- TGI (HCT-15 colon): 34.6 µM
- TGI (HL-60(TB) leukemia): 34.5 µM
- TGI (HOP-62 NSCLC): 35.8 µM
- TGI (HT29 colon): 34 µM
- TGI (IGROV1 ovarian): 41.3 µM
- TGI (K-562 leukemia): > 100 µM
- TGI (KM12 colon): 33.9 µM
- TGI (KM20L2 colon): 31.4 µM
- TGI (LOX IMVI melanoma): 30.4 µM
- TGI (LXFL 529 NSCLC): 30.1 µM
- TGI (M14 melanoma): 24.6 µM
- TGI (M19-MEL melanoma): 32.2 µM
- TGI (MALME-3M melanoma): 31.3 µM
- TGI (MOLT-4 leukemia): 36.2 µM
- TGI (NCI-H226 lung): 35.4 µM
- TGI (NCI-H23 lung): 35.5 µM
- TGI (NCI-H460 lung): 27.4 µM
- TGI (NCI-H522 lung): 33.4 µM
- TGI (OVCAR-3 ovarian): 34.5 µM
- TGI (OVCAR-5 ovarian): 30.5 µM
- TGI (OVCAR-8 ovarian): 46.7 µM
- TGI (RPMI-8226 leukemia): 39.1 µM
- TGI (RXF 393 renal): 29.9 µM
- TGI (SF-268 CNS): 52.8 µM
- TGI (SF-295 CNS): 28.6 µM
- TGI (SF-539 CNS): 31 µM
- TGI (SK-MEL-2 melanoma): 46.6 µM
- TGI (SK-MEL-28 melanoma): 31.3 µM
- TGI (SK-MEL-5 melanoma): 32.2 µM
- TGI (SK-OV-3 ovarian): 49.1 µM
- TGI (SN12C renal): 28.6 µM
- TGI (SNB-19 CNS): 32.7 µM
- TGI (SNB-75 CNS): 36.3 µM
- TGI (SNB-78 CNS): 32.6 µM
- TGI (SW-620 colon): 38.9 µM
- TGI (TK-10 renal): 50.7 µM
- TGI (U251 CNS): 28.8 µM
- TGI (UACC-257 melanoma): 32.7 µM
- TGI (UACC-62 melanoma): 28.2 µM
- TGI (UO-31 renal): 34.1 µM

SMILES: COc1ccc(N2C(=O)C3c4[nH]c5ccccc5c4C4CC(C)CC(C)C4C3C2=O)cc1 (stereo not drawn)
- TGI (786-0 renal): > 100 µM
- TGI (A498 renal): > 100 µM
- TGI (A549 NSCLC): > 100 µM
- TGI (ACHN renal): > 100 µM
- TGI (CCRF-CEM leukemia): > 100 µM
- TGI (COLO 205 colon): > 100 µM
- TGI (DLD-1 colon): > 100 µM
- TGI (DMS 114 small cell lung): > 100 µM
- TGI (DMS 273 small cell lung): > 100 µM
- TGI (EKVX NSCLC): > 100 µM
- TGI (HCC-2998 colon): > 100 µM
- TGI (HCT-116 colon): > 100 µM
- TGI (HCT-15 colon): > 100 µM
- TGI (HL-60(TB) leukemia): > 100 µM
- TGI (HOP-18 NSCLC): > 100 µM
- TGI (HOP-62 NSCLC): > 100 µM
- TGI (HOP-92 NSCLC): > 100 µM
- TGI (HT29 colon): > 100 µM
- TGI (IGROV1 ovarian): > 100 µM
- TGI (K-562 leukemia): > 100 µM
- TGI (KM20L2 colon): > 100 µM
- TGI (LXFL 529 NSCLC): > 100 µM
- TGI (M14 melanoma): > 100 µM
- TGI (M19-MEL melanoma): > 100 µM
- TGI (MALME-3M melanoma): > 100 µM
- TGI (MOLT-4 leukemia): > 100 µM
- TGI (NCI-H226 lung): > 100 µM
- TGI (NCI-H23 lung): > 100 µM
- TGI (NCI-H522 lung): > 100 µM
- TGI (OVCAR-4 ovarian): > 100 µM
- TGI (OVCAR-8 ovarian): > 100 µM
- TGI (RPMI-8226 leukemia): > 100 µM
- TGI (RXF 393 renal): > 100 µM
- TGI (SF-268 CNS): > 100 µM
- TGI (SF-295 CNS): > 100 µM
- TGI (SF-539 CNS): > 100 µM
- TGI (SK-MEL-28 melanoma): > 100 µM
- TGI (SK-MEL-5 melanoma): > 100 µM
- TGI (SK-OV-3 ovarian): > 100 µM
- TGI (SN12C renal): > 100 µM
- TGI (SNB-19 CNS): > 100 µM
- TGI (SNB-75 CNS): > 100 µM
- TGI (SNB-78 CNS): > 100 µM
- TGI (SR leukemia): > 100 µM
- TGI (SW-620 colon): > 100 µM
- TGI (U251 CNS): > 100 µM
- TGI (UACC-257 melanoma): > 100 µM
- TGI (UACC-62 melanoma): > 100 µM
- TGI (UO-31 renal): > 100 µM
- TGI (XF 498 CNS): > 100 µM
